In US6872690B2, “Herbicidal 2-alkynyl-pyri (mi) dines” (WYETH, priority 2001, dated 2005):

Assays:
Format in all cases: in vivo
[1] = test system: Matricaria inodora; test: Pre-emergence test; details: 3 weeks after treatment
Method: (§1) To evaluate their herbicidal activity, compounds according to the invention are tested using a representative range of plants:
(§2) The pre-emergence tests involve spraying a liquid formulation of the compound onto the soil in which the seeds of the plant species mentioned above has recently been sown.
(§3) The soil used in the tests is a prepared horticultural loam. The formulations used in the tests are prepared from solutions of the test compounds in acetone containing 0.4% by weight of an alkyl-phenol/ethylene oxide condensate available under the trade mark TRITON X-155. These acetone solutions are diluted with water and the resulting formulations applied at dosage levels corresponding to 0.013 kg, 0.025 kg, 0.100 kg or 0.400 kg of active material per hectare in a volume equivalent to 900 litres per hectare. In these tests untreated sown soil are used as controls. From 2 to 4 weeks after treatment, the tests are terminated and each pot is examined and rated according to the rating system set forth below: […]

[2] = test system: Alopecurus myosuroides; test: Pre-emergence test; details: 3 weeks after treatment
Method: as §1, §2, §3

[3] = test system: Triticum aestivum; test: Pre-emergence test; details: 3 weeks after treatment
Method: as §1, §2, §3

[4] = test system: Galium aparine; test: Pre-emergence test; details: 3 weeks after treatment
Method: as §1, §2, §3

[5] = test system: Ipomoea hederacea; test: Pre-emergence test; details: 3 weeks after treatment
Method: as §1, §2, §3

[6] = test system: Abutilon theophrasti; test: Pre-emergence test; details: 3 weeks after treatment
Method: as §1, §2, §3

[7] = test system: Setaria viridis; test: Pre-emergence test; details: 3 weeks after treatment
Method: as §1, §2, §3

[8] = test system: Cassia obtusifolia; test: Pre-emergence test; details: 3 weeks after treatment
Method: as §1, §2, §3

[9] = test system: Digitaria sanguinalis; test: Pre-emergence test; details: 3 weeks after treatment
Method: as §1, §2, §3

[10] = test system: Zea mays; test: Pre-emergence test; details: 3 weeks after treatment
Method: as §1, §2, §3

[11] = test system: Echinochloa crus-galli; test: Pre-emergence test; details: 3 weeks after treatment
Method: as §1, §2, §3

[12] = test system: Glycine max; test: Pre-emergence test; details: 3 weeks after treatment
Method: as §1, §2, §3

[13] = test system: Stellaria media; test: Pre-emergence test; details: 3 weeks after treatment
Method: as §1, §2, §3

[14] = test system: Orysa sativa; test: Pre-emergence test; details: 3 weeks after treatment
Method: as §1, §2, §3

[15] = test system: Lamium purpureum; test: Pre-emergence test; details: 3 weeks after treatment
Method: as §1, §2, §3

[16] = test system: Matricaria inodora; test: Post-emergence herbicidal activity test; details: 2-4 weeks after treatment
Method: as §1
(§4) These acetone solutions are diluted with water and the resulting formulations applied at dosage levels equivalent of about 0.025 to 0. 4 kg per hectare of test compound per pot. After spraying the plants are placed on greenhouse benches and are cared for in the usual manner, commensurate with conventional greenhouse practices. From 2 to 4 weeks after treatment, the seedling plants are examined and rated according to the rating system provided above.

[17] = test system: Alopecurus myosuroides; test: Post-emergence herbicidal activity test; details: 2-4 weeks after treatment
Method: as §1, §4

[18] = test system: Triticum aestivum; test: Post-emergence herbicidal activity test; details: 2-4 weeks after treatment
Method: as §1, §4

[19] = test system: Galium aparine; test: Post-emergence herbicidal activity test; details: 2-4 weeks after treatment
Method: as §1, §4

[20] = test system: Ipomoea hederacea; test: Post-emergence herbicidal activity test; details: 2-4 weeks after treatment
Method: as §1, §4

[21] = test system: Abutilon theophrasti; test: Post-emergence herbicidal activity test; details: 2-4 weeks after treatment
Method: as §1, §4

[22] = test system: Setaria viridis; test: Post-emergence herbicidal activity test; details: 2-4 weeks after treatment
Method: as §1, §4

[23] = test system: Cassia obtusifolia; test: Post-emergence herbicidal activity test; details: 2-4 weeks after treatment
Method: as §1, §4

[24] = test system: Digitaria sanguinalis; test: Post-emergence herbicidal activity test; details: 2-4 weeks after treatment
Method: as §1, §4

[25] = test system: Zea mays; test: Post-emergence herbicidal activity test; details: 2-4 weeks after treatment
Method: as §1, §4

[26] = test system: Echinochloa crus-galli; test: Post-emergence herbicidal activity test; details: 2-4 weeks after treatment
Method: as §1, §4

[27] = test system: Glycine max; test: Post-emergence herbicidal activity test; details: 2-4 weeks after treatment
Method: as §1, §4

[28] = test system: Stellaria media; test: Post-emergence herbicidal activity test; details: 2-4 weeks after treatment
Method: as §1, §4

[29] = test system: Orysa sativa; test: Post-emergence herbicidal activity test; details: 2-4 weeks after treatment
Method: as §1, §4

Cc1cc(C#Cc2ccccc2)nc(Oc2cc(C(F)(F)F)nn2C)c1 [Example 1, 4-methyl-6-phenylethynyl-2-(1-methyl-3-trifluoromethylpyrazol-5-yloxy)pyridine]
Assessment (pre-emergence application) MATIN ([1]; 0.013 kg/ha): 5 (5-Definite injury)
Assessment (pre-emergence application) MATIN ([1]; 0.025 kg/ha): 7 (7-Good herbicidal effect)
Assessment (pre-emergence application) MATIN ([1]; 0.100 kg/ha): 8 (8-Approaching complete kill)
Assessment (pre-emergence application) MATIN ([1]; 0.400 kg/ha): 8 (8-Approaching complete kill)
Assessment (pre-emergence application) ALOMY ([2]; 0.013 kg/ha): 1 (1-Trace effect)
Assessment (pre-emergence application) ALOMY ([2]; 0.025 kg/ha): 2 (2-Slight effect)
Assessment (pre-emergence application) ALOMY ([2]; 0.100 kg/ha): 4 (4-Injury)
Assessment (pre-emergence application) ALOMY ([2]; 0.400 kg/ha): 8 (8-Approaching complete kill)
Assessment (pre-emergence application) TRZWA ([3]; 0.013 kg/ha): 0 (0-No effect)
Assessment (pre-emergence application) TRZWA ([3]; 0.025 kg/ha): 0 (0-No effect)
Assessment (pre-emergence application) TRZWA ([3]; 0.100 kg/ha): 2 (2-Slight effect)
Assessment (pre-emergence application) TRZWA ([3]; 0.400 kg/ha): 3 (3-Moderate effect)
Assessment (pre-emergence application) GALAP ([4]; 0.013 kg/ha): 1 (1-Trace effect)
Assessment (pre-emergence application) GALAP ([4]; 0.025 kg/ha): 2 (2-Slight effect)
Assessment (pre-emergence application) GALAP ([4]; 0.100 kg/ha): 3 (3-Moderate effect)
Assessment (pre-emergence application) GALAP ([4]; 0.400 kg/ha): 7 (7-Good herbicidal effect)
Assessment (pre-emergence application) IPOHE ([5]; 0.013 kg/ha): 3 (3-Moderate effect)
Assessment (pre-emergence application) IPOHE ([5]; 0.100 kg/ha): 4 (4-Injury)
Assessment (pre-emergence application) IPOHE ([5]; 0.400 kg/ha): 9 (9-Complete kill)
Assessment (pre-emergence application) ABUTH ([6]; 0.013 kg/ha): 4 (4-Injury)
Assessment (pre-emergence application) ABUTH ([6]; 0.100 kg/ha): 5 (5-Definite injury)
Assessment (pre-emergence application) ABUTH ([6]; 0.400 kg/ha): 9 (9-Complete kill)
Assessment (pre-emergence application) SETVI ([7]; 0.013 kg/ha): 4 (4-Injury)
Assessment (pre-emergence application) SETVI ([7]; 0.025 kg/ha): 7 (7-Good herbicidal effect)
Assessment (pre-emergence application) SETVI ([7]; 0.100 kg/ha): 8 (8-Approaching complete kill)
Assessment (pre-emergence application) SETVI ([7]; 0.400 kg/ha): 9 (9-Complete kill)
Assessment (pre-emergence application) CASOB ([8]; 0.013 kg/ha): 1 (1-Trace effect)
Assessment (pre-emergence application) CASOB ([8]; 0.400 kg/ha): 8 (8-Approaching complete kill)
Assessment (pre-emergence application) DIGSA ([9]; 0.013 kg/ha): 5 (5-Definite injury)
Assessment (pre-emergence application) DIGSA ([9]; 0.025 kg/ha): 5 (5-Definite injury)
Assessment (pre-emergence application) DIGSA ([9]; 0.100 kg/ha): 9 (9-Complete kill)
Assessment (pre-emergence application) DIGSA ([9]; 0.400 kg/ha): 9 (9-Complete kill)
Assessment (pre-emergence application) ZEAMX ([10]; 0.013 kg/ha): 1 (1-Trace effect)
Assessment (pre-emergence application) ZEAMX ([10]; 0.025 kg/ha): 2 (2-Slight effect)
Assessment (pre-emergence application) ZEAMX ([10]; 0.100 kg/ha): 2 (2-Slight effect)
Assessment (pre-emergence application) ZEAMX ([10]; 0.400 kg/ha): 4 (4-Injury)
Assessment (pre-emergence application) ECHCG ([11]; 0.013 kg/ha): 1 (1-Trace effect)
Assessment (pre-emergence application) ECHCG ([11]; 0.025 kg/ha): 4 (4-Injury)
Assessment (pre-emergence application) ECHCG ([11]; 0.100 kg/ha): 5 (5-Definite injury)
Assessment (pre-emergence application) ECHCG ([11]; 0.400 kg/ha): 8 (8-Approaching complete kill)
Assessment (pre-emergence application) GLXMA ([12]; 0.100 kg/ha): 3 (3-Moderate effect)
Assessment (pre-emergence application) GLXMA ([12]; 0.400 kg/ha): 4 (4-Injury)
Assessment (pre-emergence application) STEME ([13]; 0.013 kg/ha): 5 (5-Definite injury)
Assessment (pre-emergence application) STEME ([13]; 0.025 kg/ha): 8 (8-Approaching complete kill)
Assessment (pre-emergence application) STEME ([13]; 0.100 kg/ha): 9 (9-Complete kill)
Assessment (pre-emergence application) STEME ([13]; 0.400 kg/ha): 9 (9-Complete kill)
Assessment (pre-emergence application) ORYSA ([14]; 0.013 kg/ha): 1 (1-Trace effect)
Assessment (pre-emergence application) ORYSA ([14]; 0.025 kg/ha): 2 (2-Slight effect)
Assessment (pre-emergence application) ORYSA ([14]; 0.100 kg/ha): 3 (3-Moderate effect)
Assessment (pre-emergence application) ORYSA ([14]; 0.400 kg/ha): 5 (5-Definite injury)
Assessment (pre-emergence application) LAMPU ([15]; 0.013 kg/ha): 7 (7-Good herbicidal effect)
Assessment (pre-emergence application) LAMPU ([15]; 0.100 kg/ha): 8 (8-Approaching complete kill)
Assessment (pre-emergence application) LAMPU ([15]; 0.400 kg/ha): 8 (8-Approaching complete kill)
Post-emergence application MATIN ([16]; 0.025 kg/ha): 4 (4-Injury)
Post-emergence application MATIN ([16]; 0.100 kg/ha): 5 (5-Definite injury)
Post-emergence application MATIN ([16]; 0.400 kg/ha): 6 (6-Herbicidal effect)
Post-emergence application ALOMY ([17]; 0.025 kg/ha): 4 (4-Injury)
Post-emergence application ALOMY ([17]; 0.100 kg/ha): 7 (7-Good herbicidal effect)
Post-emergence application ALOMY ([17]; 0.400 kg/ha): 8 (8-Approaching complete kill)
Post-emergence application TRZWA ([18]; 0.025 kg/ha): 2 (2-Slight effect)
Post-emergence application TRZWA ([18]; 0.100 kg/ha): 3 (3-Moderate effect)
Post-emergence application TRZWA ([18]; 0.400 kg/ha): 3 (3-Moderate effect)
Post-emergence application GALAP ([19]; 0.025 kg/ha): 6 (6-Herbicidal effect)
Post-emergence application GALAP ([19]; 0.100 kg/ha): 6 (6-Herbicidal effect)
Post-emergence application GALAP ([19]; 0.400 kg/ha): 6 (6-Herbicidal effect)
Post-emergence application IPOHE ([20]; 0.025 kg/ha): 6 (6-Herbicidal effect)
Post-emergence application IPOHE ([20]; 0.400 kg/ha): 8 (8-Approaching complete kill)
Post-emergence application ABUTH ([21]; 0.025 kg/ha): 4 (4-Injury)
Post-emergence application ABUTH ([21]; 0.100 kg/ha): 5 (5-Definite injury)
Post-emergence application ABUTH ([21]; 0.400 kg/ha): 6 (6-Herbicidal effect)
Post-emergence application SETVI ([22]; 0.025 kg/ha): 7 (7-Good herbicidal effect)
Post-emergence application SETVI ([22]; 0.100 kg/ha): 8 (8-Approaching complete kill)
Post-emergence application SETVI ([22]; 0.400 kg/ha): 8 (8-Approaching complete kill)
Post-emergence application CASOB ([23]; 0.025 kg/ha): 6 (6-Herbicidal effect)
Post-emergence application CASOB ([23]; 0.100 kg/ha): 7 (7-Good herbicidal effect)
Post-emergence application CASOB ([23]; 0.400 kg/ha): 7 (7-Good herbicidal effect)
Post-emergence application DIGSA ([24]; 0.025 kg/ha): 3 (3-Moderate effect)
Post-emergence application DIGSA ([24]; 0.100 kg/ha): 7 (7-Good herbicidal effect)
Post-emergence application DIGSA ([24]; 0.400 kg/ha): 7 (7-Good herbicidal effect)
Post-emergence application ZEAMX ([25]; 0.025 kg/ha): 2 (2-Slight effect)
Post-emergence application ZEAMX ([25]; 0.100 kg/ha): 4 (4-Injury)
Post-emergence application ZEAMX ([25]; 0.400 kg/ha): 5 (5-Definite injury)
Post-emergence application ECHCG ([26]; 0.025 kg/ha): 4 (4-Injury)
Post-emergence application ECHCG ([26]; 0.100 kg/ha): 7 (7-Good herbicidal effect)
Post-emergence application ECHCG ([26]; 0.400 kg/ha): 8 (8-Approaching complete kill)
Post-emergence application GLXMA ([27]; 0.025 kg/ha): 5 (5-Definite injury)
Post-emergence application GLXMA ([27]; 0.100 kg/ha): 6 (6-Herbicidal effect)
Post-emergence application GLXMA ([27]; 0.400 kg/ha): 6 (6-Herbicidal effect)
Post-emergence application STEME ([28]; 0.025 kg/ha): 5 (5-Definite injury)
Post-emergence application STEME ([28]; 0.100 kg/ha): 6 (6-Herbicidal effect)
Post-emergence application STEME ([28]; 0.400 kg/ha): 7 (7-Good herbicidal effect)
Post-emergence application ORYSA ([29]; 0.025 kg/ha): 2 (2-Slight effect)
Post-emergence application ORYSA ([29]; 0.100 kg/ha): 3 (3-Moderate effect)
Post-emergence application ORYSA ([29]; 0.400 kg/ha): 4 (4-Injury)
